Activity calls are given as the source filed them. The rule behind the calls is not given here.

The ED50 is the dose that gives a 50% effect, or the effect in half of the subjects.

Series [1] has as its system Rattus norvegicus. The experiment in a line: Narcotic antagonist activity in sc dosed rat assessed as dose required for 50% antagonist activity co-treated with meperidine. The format is functional.
The next series has as its system Mus musculus. The experiment in a line: Analgesic activity in sc dosed mouse assessed as inhibition of acetylcholine bromide-induced writhing after 2 mins. The format is functional. On the technique in general: Writhing tests count abdominal constrictions after an irritant is injected.
Series [2] has as its system Rattus norvegicus. In words: Narcotic antagonist activity in rat assessed as dose required for 50% antagonist activity at 80 mg/kg, sc co-treated with meperidine. The format is functional, organism-based. On the set-up: dose 80 mg/kg.
Series [3] deals with Rattus norvegicus. The experiment in a line: Narcotic antagonist activity in rat assessed as dose required for 50% antagonist activity at 10 mg/kg, sc co-treated with meperidine. On the set-up: dose 10 mg/kg. The format is functional, organism-based.
Series [4] concerns Rattus norvegicus. The experiment in a line: Toxicity in rat at 80 mg/kg, sc. The format is organism-based. On the set-up: dose 80 mg/kg, route subcutaneous. To be noted: in vivo.

In the case of `CC[C@@]12CC(Cc3ccc(O)cc31)N(CC=C(C)C)CC2C` (some centres undefined), the AD50 with Rattus norvegicus [1] was greater than 40 mg/kg.

With `C[C@H]1C2Cc3ccc(O)cc3[C@@]1(C)CCN2C`, the ED50 with Mus musculus came to 0.54 mg/kg.

As for `C[C@H]1C2Cc3ccc(O)cc3[C@@]1(C)CCN2Cc1ccccc1`, in the series on Rattus norvegicus [1], the AD50 was 1.3 mg/kg. In addition, the ED50 in the series with Mus musculus was 23 mg/kg.

As to `C=CCN1CC[C@]2(CC)c3cc(O)ccc3CC1[C@@H]2C`, the AD50 in the series on Rattus norvegicus [1] is 0.064 mg/kg. The ED50 with Mus musculus turned out to be 0.23 mg/kg.

In the case of `CC(C)=CCN1C[C@@H](C)[C@]2(C)C[C@@H]1Cc1ccc(O)cc12`, in the series with Rattus norvegicus [1], the AD50 stood at 2.8 mg/kg. The ED50 with Mus musculus was 29 mg/kg.

On to `CC(C)=CCN1CC[C@@]2(C)c3cc(O)ccc3C[C@@H]1[C@@H]2C` (relative stereo), for which the AD50 in the series with Rattus norvegicus [1] turned out to be 3.9 mg/kg. For the same compound, the ED50 in the series on Mus musculus was determined as 2.2 mg/kg.

For `CC[C@@]12CCN(CC=C(C)C)C(Cc3ccc(O)cc31)[C@@H]2C`, the AD50 with Rattus norvegicus [1] came to 10.9 mg/kg. The ED50 in the series with Mus musculus was found to be 2.1 mg/kg.

With `CC[C@H]1C2Cc3ccc(O)cc3[C@@]1(C)CCN2C`, the ED50 in the series with Mus musculus turned out to be 1.1 mg/kg. In addition, in the series on Rattus norvegicus [2], the result was inactive.

As to `CN1CC[C@]23c4c5ccc(O)c4O[C@H]2[C@@H](O)C=C[C@H]3[C@H]1C5` [MORPHINE], the result in the series on Rattus norvegicus [1] was inactive. Besides, in the series on Mus musculus, the ED50 came out at 0.47 mg/kg.

In the case of `CCC1CN(C)C2Cc3ccc(O)cc3[C@@]1(C)C2` (some centres undefined), the AD50 with Rattus norvegicus [1] amounted to 9 mg/kg. In addition, in the series with Mus musculus, the median effective dose (ED50) worked out at 20 mg/kg.

As for `CC1CN(C)C2Cc3ccc(O)cc3[C@@]1(C)C2` (some centres undefined), in the series on Mus musculus, the ED50 came out at 2.9 mg/kg.

As to `C=CCN1CC(C)[C@]2(CC)CC1Cc1ccc(O)cc12` (some centres undefined), the AD50 in the series on Rattus norvegicus [1] came out at 0.037 mg/kg. Moreover, in the series on Mus musculus, the ED50 turned out to be 10 mg/kg.

Consider `CC1CN(Cc2ccccc2)C2Cc3ccc(O)cc3[C@@]1(C)C2` (some centres undefined), for which, in the series on Mus musculus, the ED50 is 8.5 mg/kg. Besides, the result in the series on Rattus norvegicus [3] was inactive. In addition, the Activity entry with Rattus norvegicus [4] is “Toxic”.

For the origin of these results see ChEMBL document CHEMBL3244327, “Benzomorphans. Structure of a position isomer” (J Med Chem, 1978).
